Our source for the EC50 values is US8927726B2, “N-cyclopropyl-N-piperidinyl-amide derivatives, pharmaceutical compositions containing them and uses thereof” (Boehringer Ingelheim International GmbH, priority 2012, dated 2015).

One assay addresses T1, human GPR119 (Homo sapiens, UniProt Q8TDV5).
T1 construct: expressed in transfected cells; host or cells: MIN6 (mouse insulinoma) cells, stably transfected
T1 sequence (Q8TDV5 1-335): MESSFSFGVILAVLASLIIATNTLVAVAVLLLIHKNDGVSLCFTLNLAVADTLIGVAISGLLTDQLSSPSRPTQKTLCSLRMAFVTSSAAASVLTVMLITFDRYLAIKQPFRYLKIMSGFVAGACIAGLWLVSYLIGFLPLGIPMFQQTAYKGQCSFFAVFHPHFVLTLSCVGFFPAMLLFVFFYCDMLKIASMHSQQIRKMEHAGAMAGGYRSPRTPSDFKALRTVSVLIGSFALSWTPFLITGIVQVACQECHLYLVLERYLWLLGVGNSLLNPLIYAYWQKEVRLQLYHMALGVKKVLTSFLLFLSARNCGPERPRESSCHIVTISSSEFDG
Briefly: AlphaScreen cAMP assay in MIN6 cells stably transfected with human GPR119. Format: cell-based. As to conditions: Min-6/hGPR119 cells, 45 minutes incubation at room temperature. As to the method: The compounds of formula I according to the invention modulate the activity of the G-protein-coupled receptor GPR119. The effect of the compounds on the activation of GPR119 and on the stimulation of intracellular cAMP concentration is determined using the AlphaScreen cAMP Assay Kit (Cat. No. #6760625R) made by PerkinElmer.
MIN6 cells [Miyazaki Jet al. Endocrinology. 1990 July; 127(1):126-32] are stably transfected with an expression vector for human GPR119 cDNA (Acc. No. NP_848566). Min-6 / hGPR119 cells are cultured in DMEM, 10% FBS, 50 μM β-mercaptoethanol, 0.3 mg/mL Geniticin, 2 mM GlutaMAX at 37° C. 5% CO2. For the assay, the cells are seeded in Optiplates (white, 384-well, 160W-barcoded, TC, sterile with lid, Cat. No. #6007688 (Perkin Elmer); 10000 cells/well; 50 μl). The plates covered with lids are then incubated for 24 hours at 37° C./5% CO2. After the medium is aspirated from the wells completely, 10 μl of the test compound are added, the compounds are diluted using stimulating buffer (140 mM NaCl, 3.6 mM KCl, 0.5 mM NaH2PO4, 0.5 mM MgSO4, 1.5 mM CaCl2, 10 mM Hepes, 5 mM NaHCO3; pH 7.4. 0.5 mM IBMX and 0.1% BSA, the final DMSO concentration is 1%). After 45 minutes incubation at room temperature (approx. 20° C.), the cAMP concentrations are determined using the AlphaScreen cAMP Assay Kit (Cat.No.# 6760625R from PerkinElmer).
The compound `CC(C)(F)CN1CCC(N(C(=O)c2cc(-c3ccc(C#N)cc3F)on2)C2CC2)CC1` [Example 10, 5-(4-Cyano-2-fluoro-phenyl)-isoxazole-3-carboxylic acid cyclopropyl-[1-(2-fluoro-2-methyl-propyl)-piperidin-4-yl]-amide] came in with an EC50 of 19 nM.
The compound `O=C(c1ccc(-c2cnco2)cc1)N(C1CC1)C1CCN(CC2(C(F)(F)F)CC2)CC1` [Example 3, N-Cyclopropyl-4-oxazol-5-yl-N-[1-(1-trifluoromethyl-cyclopropylmethyl)-piperidin-4-yl]-benzamide] displayed an EC50 of 79 nM. Against the preceding compound, the EC50 is about 4.2-fold higher.
The same measure, in the same setting: to `N#Cc1ccc(-c2cc(C(=O)N(C3CC3)C3CCN(CC4(C(F)(F)F)CC4)CC3)on2)c(F)c1` [Example 7, 3-(4-Cyano-2-fluoro-phenyl)-isoxazole-5-carboxylic acid cyclopropyl-[1-(1-trifluoromethyl-cyclopropylmethyl)-piperidin-4-yl]-amide] belongs 9 nM; to `N#Cc1ccc(-c2cc(C(=O)N(C3CC3)C3CCN(CC4(C(F)(F)F)CC4)CC3)no2)c(F)c1` [Example 9, 5-(4-Cyano-2-fluoro-phenyl)-isoxazole-3-carboxylic acid cyclopropyl-[1-(1-trifluoromethyl-cyclopropylmethyl)-piperidin-4-yl]-amide], 6 nM; to `CC(C)(F)CN1CCC(N(C(=O)c2ccc(-c3cnco3)cc2)C2CC2)CC1` [Example 1, N-Cyclopropyl-N-[1-(2-fluoro-2-methyl-propyl)-piperidin-4-yl]-4-oxazol-5-yl-benzamide], 456 nM.
Same read-out and setting: the figure for `O=C(c1cnc(-n2cncn2)cn1)N(C1CC1)[C@@H]1CCN(CC2(C(F)(F)F)CC2)C[C@@H]1F` (single isomer, unassigned) [Example 13] is 2 nM.
Still for that read-out and setting: the figure for `CC(C)(F)CN1CCC(N(C(=O)c2cc(-c3ccc(C#N)cc3)on2)C2CC2)CC1` [Example 6, 5-(4-Cyano-phenyl)-isoxazole-3-carboxylic acid cyclopropyl-[1-(2-fluoro-2-methyl-propyl) -piperidin-4-yl]-amide] is 50 nM.
As to `CC(C)(F)CN1CCC(N(C(=O)c2ccc(-c3cnco3)c(F)c2)C2CC2)CC1` [Example 4, N-Cyclopropyl-3-fluoro-N[1-(2-fluoro-2-methyl-propyl)-piperidin-4-yl]-4-oxazol-5-yl-benzamide], the EC50 stood at 63 nM.
On the same count and under the same terms, to `CC(C)(F)CN1CCC(N(C(=O)c2cc(-c3ccc(C#N)cc3F)no2)C2CC2)CC1` [Example 8, 3-(4-Cyano-2-fluoro-phenyl)-isoxazole-5-carboxylic acid cyclopropyl-[1-(2-fluoro-2-methyl-propyl)-piperidin-4-yl]-amide] belongs 22 nM; to `N#Cc1ccc(-c2cc(C(=O)N(C3CC3)C3CCN(CC4(C(F)(F)F)CC4)CC3)no2)cc1` [Example 5, 5-(4-Cyano-phenyl)-isoxazole-3-carboxylic acid cyclopropyl-[1-(1-trifluoromethyl-cyclopropylmethyl) -piperidin-4-yl]-amide], 27 nM.
Still for that read-out and setting: to `O=C(c1ccc(-c2cnco2)cc1)N(C1CC1)C1CCN(CCC(F)(F)F)CC1` [Example 2, N-Cyclopropyl-4-oxazol-5-yl-N-[1-(3,3,3-trifluoro-propyl)-piperidin-4-yl]-benzamide] belongs 643 nM.

Another assay deals with T2, mutant form of the human GPR119 receptor (Homo sapiens, UniProt Q8TDV5, S329A/T327A).
T2 construct: X1, the printed 24-residue N-terminal leader ([…]) that replaces Met1; (N); expressed in transfected cells
T2 sequence (Q8TDV5 2-335 T327A/S329A): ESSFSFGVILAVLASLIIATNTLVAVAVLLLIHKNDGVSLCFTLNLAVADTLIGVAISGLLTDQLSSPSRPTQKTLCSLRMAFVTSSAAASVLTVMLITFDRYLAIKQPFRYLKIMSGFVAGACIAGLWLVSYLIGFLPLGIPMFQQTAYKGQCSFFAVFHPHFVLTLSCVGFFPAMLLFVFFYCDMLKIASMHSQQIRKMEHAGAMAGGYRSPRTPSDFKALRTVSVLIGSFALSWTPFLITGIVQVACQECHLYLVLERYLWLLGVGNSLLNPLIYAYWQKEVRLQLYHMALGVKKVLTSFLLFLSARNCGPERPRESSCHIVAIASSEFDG
Description: LANCE cAMP-384 assay in HEK293 cells stably expressing mutant human GPR119. Format: cell-based. As to conditions: mutant human GPR119 (SEQ ID No. 1), 20 min at 37 C. As to the method:
Quantitative detection of cAMP accumulation from cells expressing human GPR119 receptor is achieved using Perkin Elmer's LANCE cAMP-384 Kit (Cat #AD0264) according to the manufacturer's protocol. Briefly, HEK293 cells stably expressing a mutant form of the human GPR119 receptor as assay tool (Methionine 1 replaced with the amino acid sequence […], and T327 & S329 changed to alanines; SEQ ID No. 1) are grown to 50-70% confluency in cell culture media (DMEM, 10% heat inactivated Fetal Bovine Serum, 50 I.U./mL penicillin, 50 μg/mL streptomycin, 10 mM HEPES, 20 μg/mL G418 Sulfate). On the day of the assay, GPR119 stable HEK293 cells are lifted from the tissue culture plate and 1000 cells/well are incubated along with various concentrations of test compounds for 20 min at 37+ C. Detection Buffer (50mM HEPES, 10mM calcium chloride, 0.35% Triton X-100, 1 mg/mL BSA) containing cAMP-specific antibody is then added to all wells and allowed to equilibrate in the dark for 10 minutes at room temperature. Upon equilibration, Detection Buffer containing europium-labeled cAMP tracer complex is added to all wells and allowed to react for 1 hour at room temperature. After 1 hour, bound europium-labeled cAMP tracer is measured using a Perkin Elmer Envision plate reader. The quantity of cAMP generated in each well is derived from a standard curve. EC50 is determined using nonlinear regression analysis of the cAMP values over a range of agonist concentration (12 points spanning the range from 30 μM to 100 pM).
`Cc1nnnn1-c1ccc(C(=O)N(C2CC2)[C@@H]2CCN(CC3(C(F)(F)F)CC3)C[C@@H]2F)cn1` (single isomer, unassigned) [Example 12] displayed an EC50 of 12 nM. This counts as double-digit nanomolar.
On the same count and under the same terms, the figure for `Cc1ncn(-c2cnc(C(=O)N(C3CC3)[C@@H]3CCN(CC4(C(F)(F)F)CC4)C[C@@H]3F)cn2)n1` (single isomer, unassigned) [Example 15] is 30 nM.
On the same count and under the same terms, to `Cc1nccn1-c1ncc(C(=O)N(C2CC2)[C@@H]2CCN(CC3(C(F)(F)F)CC3)C[C@@H]2F)cn1` (single isomer, unassigned) [Example 14] belongs 27 nM; to `O=C(c1ccc(-n2cncn2)c(F)c1)N(C1CC1)[C@@H]1CCN(CC2(C(F)(F)F)CC2)C[C@@H]1F` (single isomer, unassigned) [Example 11], 10 nM.
